Measurements taken from ChEMBL document CHEMBL1909638, “Amide isosteres in structure-activity studies of antibacterial minor groove binders” (2011).
Converted amounts (≈) assume the structure as drawn.

Tests used:
Nucleic Acid [1] = test: Binding affinity to 5'-GCGATATATGCG-3' DNA sequence in PBS buffer of pH 7.4 assessed as increase in melting temperature by UV-VIS spectrophotometric analysis; assay type: nucleic-acid assay
Staphylococcus aureus [2] = test: Antibacterial activity against Staphylococcus aureus by resazurine microtiter assay; assay type: functional
Staphylococcus aureus [3] = test: Antibacterial activity against Staphylococcus aureus at 200 uM by resazurine microtiter assay; assay type: functional; set-up: scale not given here
Mycolicibacterium aurum = test: Antimycobacterial activity against Mycobacterium aurum at 37 degC using Mueller-Hinton broth by resazurine microtiter assay; assay type: functional
Nucleic Acid [4] = test: Binding affinity to 5'-GCGATATATGCG-3' DNA sequence in PBS buffer of pH 7.4 assessed as change in melting temperature by UV-VIS spectrophotometric analysis; assay type: nucleic-acid assay
Staphylococcus aureus [5] = test: Antibacterial activity against Staphylococcus aureus isolate 1 by resazurine microtiter assay; assay type: functional
Aspergillus niger = test: Antifungal activity against Aspergillus niger by resazurine microtiter assay; assay type: functional
Candida albicans = test: Antifungal activity against Candida albicans by resazurine microtiter assay; assay type: functional
Enterococcus faecalis = test: Antibacterial activity against Streptococcus faecalis by resazurine microtiter assay; assay type: functional
Staphylococcus aureus [6] = test: Antibacterial activity against Staphylococcus aureus isolate 2 by resazurine microtiter assay; assay type: functional

Row | ΔTm (Nucleic Acid [1]) [°C] | MIC (Staphylococcus aureus [2]) [µM] | MIC (Mycolicibacterium aurum) [µM] | ΔTm (Nucleic Acid [4]) [°C] | Compound | Activity (Staphylococcus aureus [3]) [%] | also measured
1 | 10 | < 1 | 2 (≈ 1.32 µg/mL) |  | CC(C)n1cc(NC(=O)c2cc(NC(=O)c3ccc(/C=C/c4cnc5ccccc5c4)cc3)cn2C)cc1C(=O)NCCN1CCOCC1 | 0.8 | 
2 | 0 |  |  |  | CCC(C)n1cc(NC(=O)c2cc(NC(=O)c3ccc(/C=C/c4cnc5ccccc5c4)cc3)cn2C)cc1C(=O)NCCN1CCOCC1 (stereo not given) | 0.3 | 
3 |  |  |  | 17 | Cn1cc(NC(=O)c2cc(NC(=O)c3ccc(NC(=O)c4cnc5ccccc5c4)cc3)cn2C)cc1C(=O)NCCN1CCOCC1 |  | 
4 | 13 | 16 (≈ 10.5 µg/mL) | 16 (≈ 10.5 µg/mL) |  | CCC(C)n1cc(NC(=O)c2cc(NC(=O)c3ccc(/C=C/c4ccc(OC)cc4)cn3)cn2C)cc1C(=O)NCCN1CCOCC1 (stereo not given) | 2.8 | 
5 |  |  |  | 18 | CN(C)c1ccc(C(=O)Nc2ccc(C(=O)Nc3cc(C(=O)Nc4cc(C(=O)NCCN5CCOCC5)n(C)c4)n(C)c3)cc2)cc1 |  | 
6 |  |  |  | 2 | CN(C)c1ccc(/C=C/c2ccc(C(=O)Nc3cc(C(=O)Nc4cc(C(=O)NCCN5CCOCC5)n(C)c4)n(C)c3)cc2)cc1 |  | MIC (Staphylococcus aureus [5]): > 100 µM; MIC (Aspergillus niger): > 100 µM; MIC (Candida albicans): 100 µM (≈ 62.4 µg/mL); MIC (Enterococcus faecalis): > 100 µM; MIC (Staphylococcus aureus [6]): > 100 µM
7 |  |  |  | 17 | Cn1cc(NC(=O)c2cc(NC(=O)c3ccc(/N=N/c4cnc5ccccc5c4)cc3)cn2C)cc1C(=O)NCCN1CCOCC1 |  | MIC (Staphylococcus aureus [5]): > 100 µM; MIC (Aspergillus niger): 50 µM (≈ 31.7 µg/mL); MIC (Candida albicans): 25 µM (≈ 15.8 µg/mL); MIC (Enterococcus faecalis): > 100 µM; MIC (Staphylococcus aureus [6]): > 100 µM
8 | 16 | 4 (≈ 2.56 µg/mL) | 8 (≈ 5.12 µg/mL) |  | COc1ccc(/C=C/c2ccc(C(=O)Nc3cc(C(=O)Nc4cc(C(=O)NCCN5CCOCC5)n(C(C)C)c4)n(C)c3)nc2)cc1 | 8.5 | 

More lines, now with the values behind:

Row | Compound | ΔTm (Nucleic Acid [1]) [°C] | MIC (Staphylococcus aureus [2]) [µM] | MIC (Mycolicibacterium aurum) [µM] | ΔTm (Nucleic Acid [4]) [°C] | Activity (Staphylococcus aureus [3]) [%] | also measured
9 | COc1ccc(/C=C/c2ccc(C(=O)Nc3cc(C(=O)Nc4cc(C(=O)NCCN5CCOCC5)n(C)c4)n(C)c3)nc2)cc1 | 16 |  |  |  |  | 
10 | CN(C)c1ccc(/N=N/c2ccc(C(=O)Nc3cc(C(=O)Nc4cc(C(=O)NCCN5CCOCC5)n(C)c4)n(C)c3)cc2)cc1 |  |  |  | 8 |  | 
11 | Cn1cc(NC(=O)c2cc(NC(=O)c3ccc(/C=C/c4cnc5ccccc5c4)cc3)cn2C)cc1C(=O)NCCN1CCOCC1 [MGB-BP-3] | 19 |  |  | 18 |  | MIC (Staphylococcus aureus [5]): 3.1 µM (≈ 1.96 µg/mL); MIC (Aspergillus niger): 50 µM (≈ 31.6 µg/mL); MIC (Candida albicans): 25 µM (≈ 15.8 µg/mL); MIC (Enterococcus faecalis): 25 µM (≈ 15.8 µg/mL); MIC (Staphylococcus aureus [6]): 12.5 µM (≈ 7.9 µg/mL)
12 | COc1cccc(/N=N/c2ccc(C(=O)Nc3cc(C(=O)Nc4cc(C(=O)NCCN5CCOCC5)n(C)c4)n(C)c3)cc2)c1 |  |  |  | 1 |  | 
13 | CC(C)n1cc(NC(=O)c2ccc(/C=C/c3cnc4ccccc4c3)cc2)cc1C(=O)Nc1cc(C(=O)NCCN2CCOCC2)n(C)c1 | 18 | < 1 | 2 (≈ 1.32 µg/mL) |  | 2.3 | 
14 | COc1cccc(/C=C/c2ccc(C(=O)Nc3cc(C(=O)Nc4cc(C(=O)NCCN5CCOCC5)n(C)c4)n(C)c3)cc2)c1 |  |  |  |  |  | MIC (Staphylococcus aureus [5]): 12.5 µM (≈ 7.63 µg/mL); MIC (Aspergillus niger): 50 µM (≈ 30.5 µg/mL); MIC (Candida albicans): 100 µM (≈ 61.1 µg/mL); MIC (Enterococcus faecalis): 6.25 µM (≈ 3.82 µg/mL); MIC (Staphylococcus aureus [6]): 25 µM (≈ 15.3 µg/mL)
15 | CCC(C)n1cc(NC(=O)c2ccc(/C=C/c3cnc4ccccc4c3)cc2)cc1C(=O)Nc1cc(C(=O)NCCN2CCOCC2)n(C)c1 (stereo not given) | 15 | < 1 | 2 (≈ 1.35 µg/mL) |  | 2.9 | 
16 | COc1cccc(C(=O)Nc2ccc(C(=O)Nc3cc(C(=O)Nc4cc(C(=O)NCCN5CCOCC5)n(C)c4)n(C)c3)cc2)c1 |  |  |  | 10 |  | 
17 | CCC(C)n1cc(NC(=O)c2ccc(/C=C/c3ccc(OC)cc3)cn2)cc1C(=O)Nc1cc(C(=O)NCCN2CCOCC2)n(C)c1 (stereo not given) | 16 | 8 (≈ 5.23 µg/mL) | 31 (≈ 20.3 µg/mL) |  | 3.2 | 
18 | COc1ccc(/C=C/c2ccc(C(=O)Nc3cc(C(=O)Nc4cc(C(=O)NCCN5CCOCC5)n(C)c4)n(C(C)C)c3)nc2)cc1 | 19 | 16 (≈ 10.2 µg/mL) | 8 (≈ 5.12 µg/mL) |  | 6.7 | 
